# Results from patent US8916702B2 (priority 2012, dated 2014).
# Like-named read-outs stand apart in the source and are kept apart here.
# Test system: HCV pseudoparticles (genotype 1a HCV E1 and E2 envelope, H77C isolate)
# Experiment: microbe, parasite or virus in culture
# Type: cell-based
# Conditions: Hepatitis C virus
# [1] = Huh-7, read-out: Activity (EC50 class), HCV pseudoparticles (genotype 1a, H77C) in Huh7 cells, EC50 expressed as class A/B
# [2] = Huh-7, 48 h, read-out: Activity (EC50 class), HCV pseudoparticle infection of Huh7 cells, luciferase 2 days after infection, EC50 expressed as class A/B
# [3] = Huh-7, 48 h, HCV pseudoparticle infection of Huh7 cells, luciferase 2 days after infection, average of duplicates
# [4] = Huh-7, 48 h, HCV pseudoparticles (genotype 1a, H77C) in Huh7 cells, average of duplicate, luciferase 2 days after infection
SMILES,EC50 [1],also measured
O=C(NC/C(=N/C(=O)c1ccc(Nc2nc(NC3(c4ccc(Cl)cc4)CC3)nc(OCC(F)(F)F)n2)cc1)C(=O)O)C(=O)Nc1ccc(-n2cnc(O)c2O)cc1 [Compound 3163],0.01 to 10 nM,
CC(C)(C)OC(=O)NC1CCC(CNC(=O)C(=O)NCC[C@H](NC(=O)c2ccc(Nc3nc(NC4(c5ccc(Cl)cc5)CC4)nc(OCC(F)(F)F)n3)cc2)C(=O)O)CC1 (stereo partly shown) [Compound 1210],,EC50 [2]: 0.01 to 10 nM
COC(=O)[C@H](CNC(=O)C(=O)Nc1ccc(N2CCOCC2)cc1)NC(=O)c1ccc(Nc2nc(NC3(c4ccc(Cl)cc4)CC3)nc(OCC(F)(F)F)n2)cc1 [Compound 3080],0.01 to 10 nM,
"CNC(=O)C(=O)NCC(NC(=O)c1ccc(Nc2nc(NC3(c4ccc(Cl)cc4)CC3)nc(OCC(F)(F)F)n2)cc1)C(=O)O (stereo in doubt) [Compound 1006, (S)-2-(4-(4-(1-(4-chlorophenyl)cyclopropylamino)-6-(2,2,2-trifluoroethoxy)-1,3,5-triazin-2-ylamino)benzamido)-3-(2-(methylamino)-2-oxoacetamido)propanoic acid]",,EC50 [3]: 0.69 nM; EC50 [2]: 0.01 to 10 nM
O=C(NC/C(=N/C(=O)c1ccc(Nc2nc(NC3(c4ccc(Cl)cc4)CC3)nc(OCC(F)(F)F)n2)cc1)C(=O)O)C(=O)Nc1ccc(-n2cncn2)cc1 [Compound 3168],0.01 to 10 nM,
O=C(NC/C(=N/C(=O)c1ccc(Nc2nc(NC3(c4ccc(Cl)cc4)CC3)nc(OCC(F)(F)F)n2)cc1)C(=O)O)C(=O)Nc1ccc(CCO)cc1 [Compound 3154],0.01 to 10 nM,EC50 [4]: 1.44 nM
COC(=O)[C@H](CCNC(=O)C(=O)NC1CC(C)(C)CC(C)(C)C1)NC(=O)c1ccc(Nc2nc(NC3(c4ccc(Cl)cc4)CC3)nc(OCC(F)(F)F)n2)cc1 [Compound 1071],,EC50 [2]: 0.01 to 10 nM
COc1ccc(NC(=O)C(=O)NCC(C)(C)CNC(=O)c2ccc(Nc3nc(NC4(c5ccc(Cl)cc5)CC4)nc(OCC(F)(F)F)n3)cc2)cc1F [Compound 3072],0.01 to 10 nM,
CC(C)(CNC(=O)C(=O)Nc1ccccc1Cl)CNC(=O)c1ccc(Nc2nc(NC3(c4ccc(Cl)cc4)CC3)nc(OCC(F)(F)F)n2)cc1 [Compound 1571],,EC50 [3]: 0.05 nM; EC50 [2]: 0.01 to 10 nM
CCc1cccc(NC(=O)C(=O)NCC[C@@H](NC(=O)c2ccc(Nc3nc(NC4(c5ccc(Cl)cc5)CC4)nc(OCC(F)(F)F)n3)cc2)C(=O)OC)c1 [Compound 3573],0.01 to 10 nM,
O=C(NCc1ccc(F)cc1)C(=O)N(CCO)CCCNC(=O)c1ccc(Nc2nc(NC3(c4ccc(Cl)cc4)CC3)nc(OCC(F)(F)F)n2)cc1 [Compound 3502],0.01 to 10 nM,
CC(C)(CNC(=O)C(=O)Nc1ccccc1-c1ccccc1)CNC(=O)c1ccc(Nc2nc(NC3(c4ccc(Cl)cc4)CC3)nc(OCC(F)(F)F)n2)cc1F [Compound 3556],0.01 to 10 nM,
O=C(NC/C(=N/C(=O)c1ccc(Nc2nc(NC3(c4ccc(Cl)cc4)CC3)nc(OCC(F)(F)F)n2)cc1)C(=O)O)C(=O)Nc1ccc(C(=O)c2ccccc2)cc1 [Compound 3152],0.01 to 10 nM,
Cn1ncc2ccc(NC(=O)C(=O)NCC(C)(C)CNC(=O)c3ccc(Nc4nc(NC5(c6ccc(Cl)cc6)CC5)nc(OCC(F)(F)F)n4)cc3)cc21 [Compound 3024],0.01 to 10 nM,
O=C(Nc1ccc(Oc2nn[nH]n2)cc1)C(=O)NC1CCCC1CNC(=O)c1ccc(Nc2nc(NC3(c4ccc(Cl)cc4)CC3)nc(OCC(F)(F)F)n2)cc1 (stereo not shown) [Compound 1494],,EC50 [2]: 0.01 to 10 nM
O=C(NC[C@H](NC(=O)c1ccc(Nc2nc(NC3(c4ccc(Cl)cc4)CC3)nc(OCC(F)(F)F)n2)cc1)C(=O)O)C(=O)Nc1ccc(CC(F)(F)F)cc1 [Compound 3297],0.01 to 10 nM,
COCc1ccc(NC(=O)C(=O)NC[C@H](NC(=O)c2ccc(Nc3nc(NC4(c5ccc(Cl)cc5)CC4)nc(OCC(F)(F)F)n3)cc2)C(=O)O)cc1 [Compound 3288],0.01 to 10 nM,
N#Cc1ccc(-c2ccc(NC(=O)C(=O)NC/C(=N/C(=O)c3ccc(Nc4nc(NC5(c6ccc(Cl)cc6)CC5)nc(OCC(F)(F)F)n4)cc3)C(=O)O)cc2)cc1 [Compound 3170],0.01 to 10 nM,EC50 [4]: 0.63 nM
